Results: paper PMC5387716, “Discovery of monocarbonyl curcumin-BTP hybrids as STAT3 inhibitors for drug-sensitive and drug-resistant breast cancer therapy” (Scientific Reports, 2017)

Assays:
Format in all cases: cell-based, human
MCF-7 cells = experiment: Annexin V-APC/7-AAD flow cytometry of apoptosis, MCF-7; conditions: 24 h
Protocol: (§1) MCF-7, MCF-7/DOX or MCF-10A cells, at a density of 2.5 × 10^5 cells per well, were cultured in regular growth medium in 6-well plates for 24 h and treated in duplicate with different concentrations of 6b or curcumin for 24 h. The cells were harvested, washed and stained with 5 μL of Annexin V-APC and 5 μL of 7-AAD at room temperature for 15 min. Cells were then analyzed by flow cytometry (488 nm excitation and 600 nm emission filters) using a BD FACSCalibur flow cytometer (Becton & Dickinson Company, Franklin Lakes, NJ).

Bcl-2 gene = experiment: Quantitative real-time RT-PCR of Bcl-2; conditions: 24 h
Protocol: (§2) Levels of mRNA expression were analyzed with the RT-PCR assay, with total RNA isolated from MCF-7 or MCF-7/DOX cells using an EASYspin Plus tissue/cell RNA extraction kit (Aidlab Biotechnologies Co. Ltd). RNA was quantified by measuring absorption at 260 nm and 1 μg of RNA was reverse transcribed to cDNA using the Transcriptor First Strand cDNA Synthesis Kit (Roche Diagnostics, Basel, Switzerland). Thermal cycling conditions included 95 °C initial denaturation for 5 min, followed by 40 cycles of denaturation (10 s at 95 °C), annealing (15 s at 60 °C) and extension (15 s at 72 °C with a single fluorescence measurement), a melt curve program (60–95 °C with a 0.11 °C/s heat increase and continuous fluorescence measurement) and a cooling step to 40 °C. The Δ cycle threshold method was used for the calculation of relative differences in mRNA abundance with a LightCycler 480 (Roche Molecular Biochemicals, Mannheim, Germany). The data were normalized to the expression of GAPDH. The results were expressed as fold-changes. The RT-PCR primers that were used in this study are listed in the supporting information.

MCF-7/DOX cells = experiment: Annexin V-APC/7-AAD flow cytometry of apoptosis, MCF-7/DOX; conditions: 24 h
Protocol: as §1

Src = experiment: Western blot of p-Src; conditions: MCF-7 and MCF-7/DOX cells, 24 h
Protocol: (§3) MCF-7 or MCF-7/DOX cells were incubated with various concentrations of 6b for 24 h. After trypsinization, cells were treated with 1× RIPA lysis buffer (50 mM Tris–HCl, pH 7.4, 150 mM NaCl, 0.25% deoxycholic acid, 1% NP-40, 1 mM EDTA and protease inhibitors) (Amresco, Solon, USA) to extract the total proteins. An aliquot of proteins from the total cell lysates (30 to 60 μg/lane) was separated by sodium dodecyl sulfate (10%) polyacrylamide gel electrophoresis (SDS–PAGE, Bio-Rad Laboratories, Hercules, CA), wet-transferred to NC membrane (Bio-Rad Laboratories, Hercules, CA) and blotted with primary antibodies specific for STAT3, p-STAT3, p-Jak2, Jak2, p-Src, Src, Erk, P-Erk, PARP, cleaved PARP, Bcl-2, Bax, Cyclin D1, P-gp and GAPDH. Bound immuno-complexes were detected using ChemiDOC™ XRS + system (Bio-Rad Laboratories, Hercules, CA).

Erk1/2 = experiment: Western blot of p-Erk1/2; conditions: MCF-7 and MCF-7/DOX cells, 24 h
Protocol: as §3

Bax gene = experiment: Quantitative real-time RT-PCR of Bax; conditions: 24 h
Protocol: as §2

## COc1ccc(/C=C/C(=O)N2CCN(C(=O)C3=Cc4cc(Br)ccc4S3(=O)=O)CC2)cc1 [Compound 6b, (E)-1-(4-(5-bromo-1,1-dioxidobenzo[b]thiophene-2-carbonyl)piperazin-1-yl)-3-(4-methoxyphenyl)prop-2-en-1-one]
MCF-7 cells; 1 μM
  apoptosis rate: 15.7%
MCF-7 cells; 2 μM
  apoptosis rate: 37.9%
MCF-7 cells; 4 μM
  apoptosis rate: 67.2%
Bcl-2 gene; MCF-7/DOX cells, 1.0 μM
  decrease in the gene expression level of Bcl-2: 27.5%
Bcl-2 gene; MCF-7/DOX cells, 2.0 μM
  decrease in the gene expression level of Bcl-2: 43.5%
Bcl-2 gene; MCF-7/DOX cells, 4.0 μM
  decrease in the gene expression level of Bcl-2: 71.0%
Bcl-2 gene; MCF-7 and MCF-7/DOX cells
  Bcl-2 gene level (in words): decreased in a dose-dependent manner
Bcl-2 gene; MCF-7 cells, 1.0 μM
  decrease in the gene expression level of Bcl-2: 11.7%
Bcl-2 gene; MCF-7 cells, 2.0 μM
  decrease in the gene expression level of Bcl-2: 45.8%
Bcl-2 gene; MCF-7 cells, 4.0 μM
  decrease in the gene expression level of Bcl-2: 61.2%
MCF-7/DOX cells; 1 μM
  apoptosis rate: 18.5%
MCF-7/DOX cells; 2 μM
  apoptosis rate: 50.1%
MCF-7/DOX cells; 4 μM
  apoptosis rate: 66.4%
Src
  p-Src expression: little effect
Erk1/2
  p-Erk1/2 expression: little effect
Bax gene; MCF-7/DOX cells, 1.0 μM
  Bax gene expression increase: 14.0%
Bax gene; MCF-7/DOX cells, 2.0 μM
  Bax gene expression increase: 76.5%
Bax gene; MCF-7/DOX cells, 4.0 μM
  Bax gene expression increase: 125.0%
Bax gene; MCF-7 and MCF-7/DOX cells
  Bax gene level (in words): upregulated
Bax gene; MCF-7 cells, 1.0 μM
  Bax gene expression increase: 15.0%
Bax gene; MCF-7 cells, 2.0 μM
  Bax gene expression increase: 71.5%
Bax gene; MCF-7 cells, 4.0 μM
  Bax gene expression increase: 97.5%
